Assay results: patent US11911450B2, “Method for managing pain” (UNIVERSITY OF MIAMI, priority 2017, dated 2024)

What was measured:
ITPR1 [1] = target: T1, ITPR1 (Homo sapiens, UniProt Q14643); assay: NGF-induced intracellular calcium release / ITPR1 activation in NBL cells; assay type: cell-based; set-up: endogenous in cells; details: NBL cells
[2] = system: RYR-dependent calcium release; assay: 5HT-induced RYR-dependent cytoplasmic calcium release in NBL cells (Fura2 imaging); assay type: cell-based, human; details: for 5HT-induced cytoplasmic calcium release, effect of ryanodine: 50 μM 5HT
Method: Pharmacodynamics—Bioassay of Calcium Release: Fifteen mm glass coverslips (cat #72228 Electron Microscopy Sciences, Hatfield, PA) were coated with poly-D-Lysine (Sigma) followed by Laminin and 1×10^5 cells were seeded on each coverslip. Twenty-four hrs later, cells were transfected with AAV2-ITR, AAV2-V5-Car10, or AAV2-V5-CA10 vectors as previously described. In embodiments wherein AAV2 is not employed, other expression vectors (including viral vectors) are used. Fura-2AM (cat #F1221 ThermoFisher scientific, Waltham, MA) was dissolved in DMSO (50 μg in 50 μl) and 1% pluronic acid-127 (cat #P2443 Sigma, St Louis, MO) as the stock solution. Forty eight hrs after seeding, cells were loaded with 2 μM Fura-2AM dye for 45 min at room temperature in the dark in a standard Ca+2 buffer solution containing: 125 mM NaCl, 2 mM MgCl, 4.5 mM KCl, 10 glucose, 20 mM HEPES, 2 mM CaCl2, pH 7.4.25. Following dye loading, coverslips were washed with Ca^+2 buffer solution. For imaging and ATP stimulation experiments, coverslips were placed in a recording chamber (cat #QR-42LP Warner instruments Hamden, CT) on a Leica DMI6000B microscope, and perfused at room temperature (˜22° C.) with Ca^+2 free buffer solution containing: 125 mM NaCl, 4 mM MgCl, 4.5 mM KCl, 10 mM glucose, 20 mM HEPES, pH 7.4. For the ratiometric imaging of Fura-2AM, the excitation light was filtered through an ultra high-speed wavelength switcher to provide wavelengths of 340 and 384 nm and capture by a high-speed digital camera (Leica DFC365FX). Activation of ITPR1 channels was achieved via application of 1 μM ATP (Sigma, St Louis, MO). Data acquisition and processing was made using the LAXS software. Regions of interest over the field of view were selected and the mean pixels intensity at each frame was measured. Data was plotted as ratio fluorescence intensity versus time and subsequently converted to a relative scale.
It was also determined that 5HT-induced RYR-dependent calcium release in NBL cells is inhibited by ryanodine. […]

[3] = system: ITPR1-mediated cytoplasmic calcium release; assay: ATP-induced cytoplasmic calcium release in HEK293 cells (Fura-2 imaging); assay type: cell-based, human
Method: Cell culture and transfections: Human neuronal-derived (e.g., NBL), human non-neuronal derived (e.g., HEK293) cells, or dispersed rodent primary DRG cells can be used. HEK293 cells (cat #CRL-1573 ATCC Manassas, VA) were cultured in Dulbecco's modified Eagle's medium (DMEM-Glutamax cat #0566; Invitrogen) supplemented with 10% fetal bovine serum, FBS (cat #16140 ThermoFisher scientific, Waltham, MA) and 1% penicillin/streptomycin (cat #15140 ThermoFisher scientific, Waltham, MA). Cells were seeded in six-well plates at density of 1.0×10^5 cells per well. […]
Pharmacodynamics—Bioassay of Calcium Release: Fifteen mm glass coverslips (cat #72228 Electron Microscopy Sciences, Hatfield, PA) were coated with poly-D-Lysine (Sigma) followed by Laminin and 1×10^5 cells were seeded on each coverslip. […] Regions of interest over the field of view were selected and the mean pixels intensity at each frame was measured. Data was plotted as ratio fluorescence intensity versus time and subsequently converted to a relative scale.
To further examine whether FLAG-CA8-204 (data not shown), V5-Car10 and V5-CA10 overexpression can inhibit ATP-induced calcium release, HEK293 cells were infected with each if these constructs and real-time intracellular calcium concentrations at baseline and in response to ATP stimulation were measured (FIG. 2). […]

[4] = morphine dose vs paw withdrawal latency; assay type: in vivo, mouse; details: approximately 30 minutes after intraperitoneal dosing; 10, 30, and 60 mg/kg
Method: Behavioral tests: Thermal and mechanical sensitivity was measured by Hargreaves test and von Frey filament threshold calculations respectively. See, e.g., Boyce-Rustay et al. Methods Mol Biol. 2010; 617:41-55; Hargreaves et al., Pain. 1988; 32(1):77-88; and Chaplan et al., J Neurosci Methods. 1994; 53(1):55-63. Tests were performed in a quiet room with daylight-like illumination. Animals were habituated to the behavioral room and apparatus for at least 60 minutes for 1 week before a blinded investigator collected data. The thermal sensitivity test was performed using an IITC Plantar Analgesia Meter apparatus (IITC Life sciences, Woodland Hills, CA) with a plastic box placed on a glass plate of constant temperature (30° C.). The mouse plantar surface was exposed to a beam of radiant heat to induced paw withdrawal. Baseline latencies were adjusted to 5-9 sec with a maximum of 20 sec as cutoff to prevent potential injury. The latency time in seconds from the onset of the intense light beam to paw withdrawal was defined as the withdrawal latency of the paw. […] The mouse hind paw was pressed with one of a series of von Frey filaments with logarithmically incrementing stiffness (Stoelting Co, Wood Dale, IL) presented perpendicular to the plantar surface of each hind paw for 1-2 seconds, the 50% threshold was determined using the Up- and Down method.

ITPR1 [5] = target: T1, ITPR1; assay: NGF-induced intracellular calcium release in HEK293 cells; assay type: cell-based; set-up: endogenous in cells; host or cells: HEK293 (ATCC CRL-1573); details: data not shown

T1 sequence (Q14643 whole entry): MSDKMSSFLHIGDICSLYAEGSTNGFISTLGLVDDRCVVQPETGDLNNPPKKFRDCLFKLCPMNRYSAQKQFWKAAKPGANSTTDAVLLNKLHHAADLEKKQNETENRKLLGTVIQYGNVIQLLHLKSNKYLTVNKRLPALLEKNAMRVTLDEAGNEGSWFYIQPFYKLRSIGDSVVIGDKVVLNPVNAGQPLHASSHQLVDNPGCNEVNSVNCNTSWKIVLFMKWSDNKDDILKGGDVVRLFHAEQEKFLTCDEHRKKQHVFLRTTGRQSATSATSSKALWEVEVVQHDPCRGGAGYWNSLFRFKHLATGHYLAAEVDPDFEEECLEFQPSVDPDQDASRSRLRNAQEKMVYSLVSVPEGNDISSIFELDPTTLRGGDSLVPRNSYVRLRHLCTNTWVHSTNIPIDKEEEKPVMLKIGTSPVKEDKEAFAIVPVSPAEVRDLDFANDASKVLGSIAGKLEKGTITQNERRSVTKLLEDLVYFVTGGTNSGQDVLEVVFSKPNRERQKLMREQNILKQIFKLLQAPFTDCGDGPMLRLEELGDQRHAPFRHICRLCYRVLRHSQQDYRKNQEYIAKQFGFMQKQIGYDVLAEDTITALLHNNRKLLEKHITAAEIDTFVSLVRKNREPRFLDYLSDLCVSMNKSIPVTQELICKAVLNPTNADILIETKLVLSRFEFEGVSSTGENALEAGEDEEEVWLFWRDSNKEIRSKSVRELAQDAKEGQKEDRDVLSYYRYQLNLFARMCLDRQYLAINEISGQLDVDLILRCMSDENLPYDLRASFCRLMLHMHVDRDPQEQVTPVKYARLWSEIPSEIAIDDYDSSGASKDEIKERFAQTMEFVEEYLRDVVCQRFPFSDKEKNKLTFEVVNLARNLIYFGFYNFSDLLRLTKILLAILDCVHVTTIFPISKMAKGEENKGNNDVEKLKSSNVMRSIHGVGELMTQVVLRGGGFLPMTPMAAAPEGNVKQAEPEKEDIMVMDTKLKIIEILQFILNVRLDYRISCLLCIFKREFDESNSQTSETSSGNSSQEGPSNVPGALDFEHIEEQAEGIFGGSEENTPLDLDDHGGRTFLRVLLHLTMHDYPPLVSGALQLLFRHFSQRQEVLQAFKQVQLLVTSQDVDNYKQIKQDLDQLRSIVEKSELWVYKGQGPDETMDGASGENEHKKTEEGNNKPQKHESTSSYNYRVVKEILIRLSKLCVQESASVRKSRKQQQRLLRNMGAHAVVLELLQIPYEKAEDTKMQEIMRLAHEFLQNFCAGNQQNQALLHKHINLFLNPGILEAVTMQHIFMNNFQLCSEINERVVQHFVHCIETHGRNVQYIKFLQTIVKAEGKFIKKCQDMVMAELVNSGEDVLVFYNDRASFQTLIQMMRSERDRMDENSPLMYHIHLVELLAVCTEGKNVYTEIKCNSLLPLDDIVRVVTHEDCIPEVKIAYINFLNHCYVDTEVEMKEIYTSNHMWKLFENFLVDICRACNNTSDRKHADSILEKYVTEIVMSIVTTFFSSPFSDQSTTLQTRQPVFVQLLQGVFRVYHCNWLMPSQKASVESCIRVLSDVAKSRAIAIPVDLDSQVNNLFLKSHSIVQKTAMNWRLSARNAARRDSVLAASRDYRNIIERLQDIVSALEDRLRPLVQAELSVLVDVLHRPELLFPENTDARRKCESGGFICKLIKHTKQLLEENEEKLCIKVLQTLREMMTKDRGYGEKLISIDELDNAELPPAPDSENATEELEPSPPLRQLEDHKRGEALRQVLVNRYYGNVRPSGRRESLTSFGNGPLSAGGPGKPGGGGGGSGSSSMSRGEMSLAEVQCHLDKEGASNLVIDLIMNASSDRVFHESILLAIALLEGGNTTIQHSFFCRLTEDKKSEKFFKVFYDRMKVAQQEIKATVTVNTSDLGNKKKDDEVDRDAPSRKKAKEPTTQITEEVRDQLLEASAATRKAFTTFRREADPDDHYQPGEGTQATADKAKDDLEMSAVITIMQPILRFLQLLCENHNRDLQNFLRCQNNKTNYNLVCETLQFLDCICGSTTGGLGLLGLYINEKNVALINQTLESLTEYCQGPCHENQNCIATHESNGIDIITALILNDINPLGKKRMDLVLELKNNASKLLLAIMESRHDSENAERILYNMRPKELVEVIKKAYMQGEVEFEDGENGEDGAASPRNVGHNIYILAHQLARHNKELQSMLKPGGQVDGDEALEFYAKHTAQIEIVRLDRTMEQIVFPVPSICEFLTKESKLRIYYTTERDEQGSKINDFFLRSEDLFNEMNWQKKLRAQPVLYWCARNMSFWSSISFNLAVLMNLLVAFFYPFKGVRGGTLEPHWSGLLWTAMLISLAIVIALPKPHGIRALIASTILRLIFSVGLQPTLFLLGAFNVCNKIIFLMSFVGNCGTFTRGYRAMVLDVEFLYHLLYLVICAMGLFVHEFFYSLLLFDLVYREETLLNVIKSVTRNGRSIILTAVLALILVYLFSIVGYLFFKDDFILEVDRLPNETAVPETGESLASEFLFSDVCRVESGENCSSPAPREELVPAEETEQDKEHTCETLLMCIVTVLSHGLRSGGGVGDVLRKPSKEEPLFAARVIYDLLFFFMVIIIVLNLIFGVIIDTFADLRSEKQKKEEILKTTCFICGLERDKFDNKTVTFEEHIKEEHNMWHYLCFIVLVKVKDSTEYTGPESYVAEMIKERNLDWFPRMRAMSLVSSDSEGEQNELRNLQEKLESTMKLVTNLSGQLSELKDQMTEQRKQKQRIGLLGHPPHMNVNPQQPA

NCCOB(c1ccccc1)c1ccccc1 [2-APB, reference compound]
NGF-induced intracellular calcium release (ITPR1 [1]): nearly completely inhibited

NCCc1c[nH]c2ccc(O)cc12 [5HT, reference compound]
effect of 5HT on calcium release [2]: stimulates calcium release

Nc1ncnc2c1ncn2[C@@H]1O[C@H](COP(=O)(O)OP(=O)(O)OP(=O)(O)O)[C@@H](O)[C@H]1O [ATP, reference compound]
effect of ATP on cytosolic free calcium [3]: stimulated calcium release and an increase in cytosolic free calcium levels in a dose-dependent manner

CN1CC[C@]23c4c5ccc(O)c4O[C@H]2[C@@H](O)C=C[C@H]3[C@H]1C5 [morphine, reference compound]
paw withdrawal latency [4]: Elevations were significant when compared with saline

NGF: nerve growth factor, stimulant of calcium release
effect of NGF on intracellular calcium release (ITPR1 [5]): increased intracellular calcium release

ryanodine [reference compound]
5HT-induced cytoplasmic calcium release, effect of ryanodine ([2]; 10 nM ryanodine): nearly completely inhibited
5HT-induced cytoplasmic calcium release, effect of ryanodine ([2]; dose-dependent, vs vehicle): significantly inhibited
